Experimental data reported in PMC4593031, “Azobenzene Modified Imidacloprid Derivatives as Photoswitchable Insecticides: Steering Molecular Activity in a Controllable Manner” (Scientific Reports, 2015).
Several values for one entry are separate records, joined by “and”; a condition that tells them apart may be missing. Identical values can stand only once. Like-named read-outs stand apart in the source and are kept apart here.

Key:
[1] = tested on: house fly (Musca domestica); experiment: Insecticidal test for house fly by intrathoracic injection; assay type: in vivo; conditions: for Musca domestica in vivo LD50: intrathoracic injection, mortality at 24 h
Experimental: The ability of azobenzene to regulate insecticidal activities remains unexplored. To better understand the activity changes induced by light, the efficacy before and after irradiation was tested by leaf-dip method for cowpea aphid (Aphis craccivora) and intrathoracic injection against house fly (Musca domestica)[46][47]. Against cowpea aphid, all the isomers had low activity and no significant difference was observed between two photo isomers (Supplementary Table S1 online). We attribute this observation to the poor solubility at the testing concentrations.
Thus, injection of chemicals into house fly was employed to evaluate their intrinsic activity (Table 2). House fly is a most commonly used indicator for both in vitro and in vivo insecticidal activity. Replacement of chloropyridinyl in IMI with AB leads to a deleterious effect on in vivo activity to house fly as exemplified by analogues AMI-1, 2 and 5 with LD50 values of more than 10 μg/g irrespective of irradiation or not. […] No obvious difference was observed between the trans and cis form of AMI-9.
House fly adults were anesthetized with carbon dioxide for 10 min and then were treated with the AMIs dissolved in distilled water or 10% DMSO aqueous solution by intrathoracic injection (0.4 μL for each fly). Twenty flies were treated for each dosage with duplicate samples. The mortality rates were counted twenty-four hours after treatment. Each treatment had three repetitions and the data subjected to probit analysis.

[2] = UV/Vis absorption of photoisomers; assay type: physicochemical; conditions: for λmax n-π* (cis): cis isomer; for λmax π-π* (trans): trans isomer
From the text: The photoswitchable behaviors of AMIs at room temperature were characterized by UV/Vis absorption, NMR spectroscopy and HPLC studies. […] Upon irradiation with ultraviolet (365 nm), a gradual intensity decrease at 327 nm and increase at 410–500 nm was detected corresponding to the π–π* and n–π* transition band, respectively (Fig. 3B). The reverse spectral changes were observed upon irradiation at 436 nm (data not shown). All the other compounds gave the similar spectral changes when illuminated with light. The proportions of E/Z isomer at the photostationary states before and after irradiation were determined by HPLC analysis (Table 1). Most of the compounds could produced more than 80% cis isomers upon irradiation. […] The photoisomerization of AMI-10 was further identified by ^1H NMR spectroscopy with the notable appearance of two double peaks at δ 7.25 and 6.85, respectively (Supplementary Fig. S1 online).
Varian Cary 100 UV-vis spectrophotometer was used for obtaining absorption (UV-Vis) spectra. The solutions of compounds were irradiated with a UV lamp (365 nm). The cis to trans photoisomeriation were performed with a light-emitting diode (blue light, 450 nm). The corresponding UV-Vis spectrums were collected in supplmentary files. The photostationary states were determined by high performance liquid chromatography (HPLC) measurements and the trans/cis ratios were calculated at the isosbestic points.

house fly brain nAChR = experiment: nAChR binding in vitro, competitive inhibition of [3H]NMI binding; conditions: 1 nM [3H]NMI, house fly head membranes, read-out: Musca domestica in vitro IC50, [3H]NMI
Experimental: Tritium labeled nitromethylene analogue of IMI ([^3H]NMI) is a unique reporter for monitoring nAChR binding not only in vitro but also in vivo due to its extremely high binding potency. Here, the in vitro interaction of AMIs with house fly brain nAChR was measured by competitive inhibition of [^3H]NMI binding (Table 2). Photoisomers of AMI-1, 2, 5, and 6 had very poor ability to displacing [^3H]NMI binding (IC50 > 2000 nM) leading to difficulty for difference judgement. […] A 4-fold difference was achieved on AMI-4 and 10 upon photoirradiation. Compounds AMI-9 or AMI-10 have some similarities with the bis-IMI derivatives disclosed by Kagabu et al.[49][50][51]. […] Among various spacers investigated, the heptamethylene or furan-2,5-dimethylene was the optimal bridge. The N-PhN=NPh-N lengths for trans and cis isomers of AMI-9 or AMI-10 are about 12.29 Ǻ and 6.82 Ǻ or 12.59 Ǻ and 8.14 Ǻ, respectively. While for the bis-IMI linked by heptamethylene, the distance is 9.96 Ǻ, close to that of cis-AMI-10. The shorter or longer distance of the linker may decrease the activity. Furthermore, the lack of heteroatom in the AB linker which is important for stabilizing the interaction with the receptor further attenuated the activity.
House fly heads were collected after the fly adults frozen with liquid nitrogen were broken into body parts. Then the heads were homogenized in 0.1 mM EDTA, 0.32 M sucrose and 100 mM sodium phosphate (pH 7.4). The homogenate was treated by filtering through four layers of 64-μm mesh nylon screen. After centrifuging at 500 g for 30 min, the supernatant was collected and again filtered through using the method above. After centrifuging at 25,000 g for 60 min at 4 °C, the pellet was resuspended in binding buffer (mixture of 50 mM sodium chloride and 10 mM sodium phosphate, pH 7.4). These brain membranes were used fresh or stored for up to several weeks at −80 °C. Then 1 nM [^3H]NMI, varying concentrations of neonicotinoids and 300–500 μg membrane protein in a final volume of 500 μL was incubated at 22 °C for 60 min. The reaction mixture was filtered through Whatman GF/B glass-fiber filters prewetted by binding buffer using a Brandel M-24R Harvester (Gaithersburg, MD) to quantitate the bound [^3H]NMI, followed by two rinses each with binding buffer (5 mL) and final liquid scintillation. Nonspecific binding was determined with unlabeled NMI (20 μM). Specific binding was about 80–90% of total binding. The percentage inhibition was determined from two (compounds AMI-1, AMI-2, AMI-5, AMI-6 and azobenzene whose activities were extremely low) or three separate experiments each with triplicate samples. Half maximal inhibitory concentration (IC50) were determined by nonlinear regression analysis for logarithm of inhibitor concentration versus probit percentage inhibition.

[3] = Photoswitching cycles / constant irradiation (fatigue resistance); assay type: physicochemical; conditions: multiple cycles of photoisomerization or constant irradiation at 365 nm for 1 h

| Molecule | Musca domestica in vivo LD50 ([1]; irradiated) | Musca domestica in vivo LD50 ([1]; nonirradiated) | λmax n-π* (cis) [2] [nm] | λmax π-π* (trans) [2] [nm] | IC50 (house fly brain nAChR; irradiated) [nM] | IC50 (house fly brain nAChR; nonirradiated) [nM] | photo bleaching or photo-oxidation [3] | poisoning sign in house fly ([1]; under the tested concentrations) | Musca domestica in vivo LD50 ([1]; irradiated, listed as 5) | Musca domestica in vivo LD50 ([1]; nonirradiated, listed as 5) |
| --- | --- | --- | --- | --- | --- | --- | --- | --- | --- | --- |
| 2-chloro-5-(((E)-2-(nitromethylene)-3-(2-((E)-phenyldiazenyl)benzyl)imidazolidin-1-yl)methyl)pyridine [AMI-6] | >10 µg/g | >10 µg/g | 433 | 322 | > 2000 | > 2000 |  |  |  |  |
| O=[N+]([O-])/N=C1\N(Cc2ccc(Cl)nc2)CCN1Cc1cccc(/N=N/c2ccccc2)c1 [AMI-3] | 4.4 ± 0.7 µg/g | 3.9 ± 0.5 µg/g | 431 | 317 | 1140 ± 106 | 250 ± 22 |  |  |  |  |
| O=[N+]([O-])/N=C1/N(Cc2ccc(/N=N/c3ccccc3)cc2)CCN1Cc1ccc(Cl)nc1 [AMI-4] | 9.2 ± 1.6 µg/g | 6.5 ± 1.0 µg/g | 433 | 322 | 1220 ± 98 | 818 ± 92 |  |  |  |  |
| O=[N+]([O-])/N=C1\N(Cc2ccc(Cl)nc2)CCN1Cc1cccc(/N=N/c2cccc(CN3CCN(Cc4ccc(Cl)nc4)/C3=N\[N+](=O)[O-])c2)c1 [AMI-9] | 3.0 ± 0.6 µg/g | 5.1 ± 0.8 µg/g | 429 | 319 | 1340 ± 154 | 1160 ± 141 |  |  |  |  |
| O=[N+]([O-])N=C1N(Cc2ccc(N=Nc3ccc(CN4CCN(Cc5ccc(Cl)nc5)C4=N[N+](=O)[O-])cc3)cc2)CCN1Cc1ccc(Cl)nc1 [AMI-10] | 0.5 µg/g and 0.5 ± 0.08 µg/g | 2.8 µg/g and 2.8 ± 0.4 µg/g | 434 | 325 | 112 ± 13 | 466 ± 55 | No photo bleaching or photo-oxidation could be observed |  |  |  |
| O=[N+]([O-])NC1=NCCN1Cc1ccc(Cl)nc1 [IMI, imidacloprid] | 0.05 ± 0.01 µg/g | 0.05 ± 0.01 µg/g |  |  | 28.8 ± 4 | 28.8 ± 4 |  |  |  |  |
| c1ccc(/N=N/c2ccccc2)cc1 [azobenzene] | >10 µg/g | >10 µg/g |  |  | > 2000 | > 2000 |  | no significant poisoning sign was detected |  |  |
| (E)-1-(3-(((E)-2-(nitromethylene)imidazolidin-1-yl)methyl)phenyl)-2-(3-(((Z)-2-(nitromethylene)imidazolidin-1-yl)methyl)phenyl)diazene [AMI-7] | 5.3 ± 1.0 µg/g | 7.9 ± 1.1 µg/g | 432 | 321 | 1730 ± 135 | 1860 ± 151 |  |  |  |  |
| (Z)-2-(nitromethylene)-1-(2-((E)-phenyldiazenyl)benzyl)imidazolidine [AMI-5] | >10 µg/g | >10 µg/g | 436 | 320 | > 2000 | > 2000 |  |  | more than 10 μg/g | more than 10 μg/g |
